Tests used:
[1] = test system: SPI1 type III protein secretion system (SopE'-'Bla secretion); test: Primary assay: Type III protein secretion of the chimeric SopE'-'Bla polypeptide by Salmonella enterica; type: cell-based; conditions: read-out: SopE IC50
Text: Primary assay: Type III protein secretion of the chimeric SopE′-'Bla polypeptide by Salmonella enterica. This procedure is a cell-based assay that measures the type III-dependent secretion by Salmonella enterica of a plasmid-encoded chimeric polypeptide whose synthesis can be regulated, and which is endowed with an enzymatic activity that can be monitored […] by hydrolysis of a substrate that is unable to penetrate into the bacterial cytoplasm within the time constraints of the reaction. Thus, the colorimetric reaction is not influenced by SopE′-'Bla polypeptide in the bacterial cytoplasm. Instead, it effectively measures the amount of polypeptide that has been secreted from the S. enterica cytoplasm to the extracellular medium via type III system protein secretion.
The SopE′-' Bla recombinant polypeptide consists of two functionally distinct domains spliced together. The N-terminus domain is encoded by a polynucleotide region specifying the signal for type III secretion of the SopE polypeptide of S. enterica, an effector of the SPI1 type III protein secretion system. The C-terminus domain of SopE′-'Bla consists of a 263 amino acid peptide sequence that corresponds to the TEM-1 β-lactamase expressed by plasmid pBR322 but without its N-terminal signal sequence. The TEM-1 β-lactamase part of the SopE′-'Bla chimeric polypeptide is used as a reporter enzyme. It is capable of hydrolyzing nitrocefin resulting in a product whose accumulation can be monitored by colorimetric detection. The secretion of the SopE′-'Bla chimeric polypeptide from the cytoplasm to the extracellular medium is dependent on type III protein secretion.
For this procedure, cells grown under conditions known to favor a functional SPI1 secretion system are induced for expression of the SopE′-'Bla protein and grown either in the presence or in the absence of putative inhibitors for determined time. Nitrocefin is then added to the various cultures and its hydrolysis are used for quantitation. An inhibitor of Type III protein secretion is generally a compound that reduces the signal of the enzymatic reaction by decreasing the amount of SopE′-'Bla secreted into the extracellular medium.

[2] = test system: type III protein secretion system of P. aeruginosa PA103 (ExoU secretion); test: Tertiary assay: Type III-dependent secretion of ExoU by P. aeruginosa PA103; type: cell-based; conditions: Pseudomonas aeruginosa, ExoU Conc 100 μM, read-out: ExoU % Inh
Text: Tertiary assay: inhibition of Type III protein secretion of effectors from a Pseudomonas aeruginosa system. Type III protein secretion is used by P. aeruginosa to secrete several essential virulence determinants. One effector of the type III protein secretion system of P. aeruginosa PA103 is the virulence determinants ExoU.
The amount of Type III-dependent secretion of ExoU by P. aeruginosa PA103 can be determined in a cell-based assay by quantification of the 73.9 kDa ExoU protein scereted into the extracellular medium. Such quantitation can be achieved by growing strain PA103 in a deferrated medium in the presence of nitrilotriacetic acid (an inducer of Type III protein secretion in P. aeruginosa) and either in the presence or absence of putative inhibitors. After a prolonged growth period, the cells are sedimented and the supernatants concentrated by ammonium sulfate precipitation. The proteins in the resuspended pellets are separated by electrophoresis on SDS-polyacrylamide gels. After staining gels with Colloidal Blue™, the 73.9 kDa ExoU band is quantitated by scanning through an imager. The effects of inhibitors on the intensity of the ExoU band may be measured relative to that of untreated controls.

| SMILES | IC50 [1] | inhibition at 100 µM [2] |
| --- | --- | --- |
| O=C(N[C@@H](C[S+]([O-])Cc1ccccc1)C(=O)O)c1nc(-c2ccc(C(F)(F)F)cc2)[nH]c1-c1ccc(-c2ccccc2)cc1 (stereo partly drawn) [Compound 12, (R)-2-{[5-Biphenyl-4-yl-2-(4-trifluoromethylphenyl)-1H-imidazole-4-carbonyl]amino}-3-phenylmethanesulfinylpropionic acid] | 14 µM | 84.3% |
| O=C(N[C@@H](CSCc1ccccc1)C(=O)O)c1nc(-c2ccc(C(F)(F)F)cc2)oc1-c1ccc(-c2nccs2)cc1 [Compound 21, (R)-3-Benzylsulfanyl-2-{[5-(4-thiazol-2-yl-phenyl)-2-(4-trifluoromethylphenyl)oxazole-4-carbonyl]amino}propionic acid] | 3.1 µM |  |
| O=C(N[C@@H](COCc1ccccc1)C(=O)O)c1nc(-c2ccc(C(F)(F)F)cc2)oc1-c1cccnc1Cl [Compound 24, (S)-3-Benzyloxy-2-{[5-(2-chloropyridin-3-yl)-2-(4-trifluoromethylphenyl)oxazole-4-carbonyl]amino}propionic acid] | 80.5 µM |  |
| O=C(N[C@@H](CSCc1ccccc1)C(=O)O)c1nc(-c2ccc(C(F)(F)F)cc2)oc1-c1cccnc1Cl [Compound 25, (R)-3-Benzylsulfanyl-2-{[5-(2-chloropyridin-3-yl)-2-(4-trifluoromethylphenyl)oxazole-4-carbonyl]amino}propionic acid] | 62.6 µM |  |
| O=C(N[C@@H](CSCc1ccccc1)C(=O)O)c1nc(-c2ccc(C(F)(F)F)cc2)oc1-c1ccc2ccccc2n1 [Compound 26, (R)-3-Benzylsulfanyl-2-{[5-quinolin-2-yl-2-(4-trifluoromethylphenyl)oxazole-4-carbonyl]amino}propionic acid] | 5.8 µM |  |
| O=C(N[C@@H](Cc1ccc(Cl)cc1)C(=O)O)c1nc(-c2ccc(C(F)(F)F)cc2)oc1-c1ccc2ccccc2n1 [Compound 28, (S)-3-(4-Chlorophenyl)-2-{[5-quinolin-2-yl-2-(4-trifluoromethylphenyl)oxazole-4-carbonyl]amino}propionic acid] | 3.6 µM |  |
| O=C(N[C@@H](C[S+]([O-])Cc1ccccc1)C(=O)O)c1nc(-c2ccc(C(F)(F)F)cc2)oc1-c1cccnc1N1CCCCC1 (stereo partly drawn) [Compound 30, (R)-3-Phenylmethanesulfinyl-2-{[5-(3,4,5,6-tetrahydro-2H-[1,2′]bipyridin-3′-yl)-2-(4-trifluoromethylphenyl)oxazole-4-carbonyl]amino}propionic acid] | 29.2 µM |  |
| O=C(N[C@@H](CS(=O)(=O)Cc1ccccc1)C(=O)O)c1nc(-c2ccc(C(F)(F)F)cc2)oc1-c1cccnc1N1CCCCC1 [Compound 31, (R)-3-Phenylmethanesulfonyl-2-{[5-(3,4,5,6-tetrahydro-2H-[1,2′]bipyridin-3′-yl)-2-(4-trifluoromethylphenyl)oxazole-4-carbonyl]amino}propionic acid] | 71.5 µM |  |
| CC(=O)N1CCN(c2ncccc2-c2oc(-c3ccc(C(F)(F)F)cc3)nc2C(=O)NC(Cc2ccc(Cl)cc2)C(=O)O)CC1 (stereo not shown) [Compound 32, 2-{[5-[2-(4-Acetylpiperazin-1-yl)pyridin-3-yl]-2-(4-trifluoromethylphenyl)oxazole-4-carbonyl]amino}-3-(4-chlorophenyl)propionic acid] | 77.3 µM |  |
| O=C(NC(CSCc1ccccc1)C(=O)O)c1nc(-c2ccc(Oc3ccccc3)cc2)oc1-c1ccc(Cl)nc1Cl (stereo not shown) [Compound 36, 3-Benzylsulfanyl-2-{[5-(2,6-dichloropyridin-3-yl)-2-(4-phenoxyphenyl)oxazole-4-carbonyl]amino}propionic acid] | 3.3 µM |  |
| O=C(NC(Cc1ccc(Cl)cc1)C(=O)O)c1nc(-c2ccc(Oc3ccccc3)cc2)oc1-c1ccc(Cl)nc1Cl (stereo not shown) [Compound 38, 3-(4-Chlorophenyl)-2-{[5-(2,6-dichloropyridin-3-yl)-2-(4-phenoxyphenyl)oxazole-4-carbonyl]amino}propionic acid] | 2.4 µM |  |
| O=C(N[C@@H](CSCc1ccccc1)C(=O)O)c1nc(-c2ccc(Oc3ccccc3)cc2)oc1-c1cnc(Cl)c(Cl)c1 [Compound 39, (R)-3-Benzylsulfanyl-2-{[5-(5,6-dichloropyridin-3-yl)-2-(4-phenoxyphenyl)oxazole-4-carbonyl]amino}propionic acid] | 9.1 µM |  |
| O=C(N[C@@H](COCc1ccccc1)C(=O)O)c1nc(-c2ccc(Oc3ccccc3)cc2)oc1-c1cnc(Cl)c(Cl)c1 [Compound 40, (S)-3-Benzyloxy-2-{[5-(5,6-dichloropyridin-3-yl)-2-(4-phenoxyphenyl)oxazole-4-carbonyl]amino}propionic acid] | 5.2 µM |  |
| O=C(N[C@@H](COCc1ccccc1)C(=O)O)c1nc(-c2ccc(-c3ccccc3)cc2)oc1-c1cnc(Cl)c(Cl)c1 [Compound 44, (S)-3-Benzyloxy-2-{[2-biphenyl-4-yl-5-(5,6-dichloropyridin-3-yl)oxazole-4-carbonyl]amino}propionic acid] | 3.3 µM |  |
| Cn1cc(-c2oc(-c3ccc(C(F)(F)F)cc3)nc2C(=O)N[C@@H](CSCc2ccccc2)C(=O)O)c2ccccc21 [Compound 46, (R)-3-Benzylsulfanyl-2-{[5-(1-methyl-1H-indol-3-yl)-2-(4-trifluoromethylphenyl)oxazole-4-carbonyl]amino}propionic acid] | 47.3 µM |  |
| Cn1cc(-c2oc(-c3ccc(C(F)(F)F)cc3)nc2C(=O)N[C@@H](COCc2ccccc2)C(=O)O)c2ccccc21 [Compound 47, (S)-3-Benzyloxy-2-{[5-(1-methyl-1H-indol-3-yl)-2-(4-trifluoromethylphenyl)oxazole-4-carbonyl]amino}propionic acid] | 54 µM |  |
| N=C(NO)c1ccc(-c2oc(-c3ccc(C(F)(F)F)cc3)nc2C(=O)N[C@@H](CSCc2ccccc2)C(=O)O)cc1 [Compound 49, (R)-3-Benzylsulfanyl-2-{[5-[4-(N-hydroxycarbamimidoyl)phenyl]-2-(4-trifluoromethylphenyl)oxazole-4-carbonyl]amino}propionic acid] | 34.7 µM |  |
| O=C(N[C@@H](CSCc1ccccc1)C(=O)O)c1nc(-c2ccc(C(F)(F)F)cc2)oc1-c1ccc(-c2noc(C(F)(F)F)n2)cc1 [Compound 50, (R)-3-Benzylsulfanyl-2-{[5-[4-(5-trifluoromethyl[1,2,4]oxadiazol-3-yl)phenyl]-2-(4-trifluoromethylphenyl)oxazole-4-carbonyl]amino}propionic acid] | 64.3 µM |  |
| O=C(NC(Cc1ccc(Cl)cc1)C(=O)O)c1nc(-c2ccc(C(F)(F)F)cc2)oc1-c1cnc2ccccc2n1 (stereo not shown) [Compound 54, 3-(4-Chlorophenyl)-2-{[5-quinoxalin-2-yl-2-(4-trifluoromethylphenyl)oxazole-4-carbonyl]amino}propionic acid] | 49.4 µM |  |
| O=C(N[C@@H](COCc1ccccc1)C(=O)O)c1nc(-c2ccc(C(F)(F)F)cc2)oc1C1CCN(c2nccc(C(F)(F)F)n2)CC1 [Compound 56] | 12 µM |  |
| O=C(NC(Cc1ccc(Cl)cc1)C(=O)O)c1nc(-c2cccc3ccccc23)oc1-c1ccc(C(F)(F)F)nc1 (stereo not shown) [Compound 58, 3-(4-Chlorophenyl)-2-{[2-naphthalen-1-yl-5-(6-trifluoromethylpyridin-3-yl)oxazole-4-carbonyl]amino}propionic acid] | 4.2 µM |  |
| O=C(NC(Cc1ccc(Cl)cc1)C(=O)O)c1cc(-c2ccc(-c3ccccc3)cc2)nn1-c1cccc(C(F)(F)F)c1 (stereo not shown) [Compound 74, 2-{[5-Biphenyl-4-yl-2-(3-trifluoromethylphenyl)-2H-pyrazole-3-carbonyl]amino}-3-(4-chlorophenyl)propionic acid] | 1.5 µM |  |
| O=C(NC(Cc1ccc(Cl)cc1)C(=O)O)c1cc(-c2ccc(-c3ccccc3)cc2)nn1-c1ccc(Cl)c(Cl)c1 (stereo not shown) [Compound 75, 2-{[5-Biphenyl-4-yl-2-(3,4-dichlorophenyl)-2H-pyrazole-3-carbonyl]amino}-3-(4-chlorophenyl)propionic acid] | 3 µM |  |
| O=C(NC(Cc1ccc(Cl)cc1)C(=O)O)c1cc(-c2ccc(-c3ccccc3)cc2)nn1-c1ccc(C(F)(F)F)cc1 (stereo not shown) [Compound 76, 2-{[5-Biphenyl-4-yl-2-(4-trifluoromethylphenyl)-2H-pyrazole-3-carbonyl]amino}-3-(4-chlorophenyl)propionic acid] | 19.6 µM |  |

Reference: patent US20050272784A1 (priority 2004, published 2005)
